From ChEMBL document CHEMBL4602643, “Anti-inflammatory activities of isopimara-8(14),-15-diene diterpenoids and mode of action of kaempulchraols P and Q from Kaempferia pulchra rhizomes” (Bioorg Med Chem Lett, 2020)
The source made the active and inactive calls. The calls are words filed in the database; no cut-off is given here.

Experiments:
[1] = Cytotoxicity against mouse RAW264.7 cells assessed as cell survival at 50 uM; format: cell-based; conditions: read-out: Activity
[2] = Cytotoxicity against mouse RAW264.7 cells assessed as cell survival at 100 uM; format: cell-based; conditions: read-out: Activity
RAW264.7 [3] = assay: Anti-inflammatory activity in mouse RAW264.7 cells assessed as inhibition of LPS-induced NO production at 100 uM relative to control; format: functional
RAW264.7 [4] = assay: Anti-inflammatory activity in mouse RAW264.7 cells assessed as inhibition of LPS-induced NO production at 10 uM relative to control; format: functional
RAW264.7 [5] = assay: Anti-inflammatory activity in mouse RAW264.7 cells assessed as inhibition of LPS-induced NO production at 50 uM relative to control; format: functional
RAW264.7 [6] = assay: Anti-inflammatory activity in mouse RAW264.7 cells assessed as inhibition of LPS-induced NO production; format: functional, cell-based
[7] = Cytotoxicity against mouse RAW264.7 cells assessed as cell survival at 5 uM; format: cell-based; conditions: read-out: Activity
[8] = Cytotoxicity against mouse RAW264.7 cells assessed as cell survival at 10 uM; format: cell-based; conditions: read-out: Activity
RAW264.7 [9] = assay: Anti-inflammatory activity in mouse RAW264.7 cells assessed as inhibition of LPS-induced NO production at 5 uM relative to control; format: functional
J774.1 = assay: Anti-inflammatory activity in mouse J774.1 cells assessed as inhibition of LPS-induced NO production preincubated for 2 hrs before LPS stimulation and measured after 24 hrs by Griess method; format: functional, cell-based
RAW264.7 [10] = assay: Cytotoxicity against mouse RAW264.7 cells assessed as reduction in cell viability; format: cell-based
RAW264.7 [11] = assay: Inhibition of LPS-induced NF-kappaB activation in mouse RAW264.7 cells expressing luciferase gene at 5 to 25 uM by luciferase reporter gene assay; format: cell-based
RAW264.7 [12] = assay: Inhibition of LPS-induced IL-6 production in mouse RAW264.7 cells at 25 uM by ELISA; format: functional, cell-based
RAW264.7 [13] = assay: Inhibition of NF-kappaB activation in mouse RAW264.7 cells expressing luciferase gene at 5 to 25 uM by luciferase reporter gene assay; format: cell-based
RAW264.7 [14] = assay: Cytotoxicity against mouse RAW264.7 cells expressing luciferase reporter gene assessed as cell survival at 5 to 25 uM; format: cell-based; conditions: raw264.7, 25 µM
RAW264.7 [15] = assay: Antiinflammatory activity in mouse RAW264.7 cells assessed as inhibition of LPS-induced COX2 expression at 25 uM incubated for 24 hrs by Western blot analysis; format: functional, cell-based

Row | SMILES | viability at 50 µM [1] | viability at 100 µM [2] | inhibition at 100 µM (RAW264.7 [3]) | inhibition at 10 µM (RAW264.7 [4]) | inhibition at 50 µM (RAW264.7 [5]) | IC50 (RAW264.7 [6]) | viability at 5 µM [7] | viability at 10 µM [8] | inhibition at 5 µM (RAW264.7 [9]) | IC50 (J774.1) | IC50 (RAW264.7 [10]) | inhibition (RAW264.7 [11]) | inhibition (RAW264.7 [12]) | inhibition (RAW264.7 [13]) | Activity (RAW264.7 [14]) | inhibition (RAW264.7 [15])
1 | C=C[C@]1(C)C=C2CC[C@H]3C(C)(C)CC[C@H](O)[C@]3(C)[C@H]2CC1 | 67.6% | 3.78% | 80.5% | 14% | 47.5% | 53.8 µM | 57.7% | 77.4% | 27.2% | – | – | – | – | – | – | –
2 | C=C[C@]1(C)C=C2CC[C@H]3C(C)(C)C[C@H](O)[C@H](O)[C@]3(C)[C@@]2(O)CC1 | 27.5% | 27.6% | 20.8% | 7.8% | 21% | > 100 µM | 85.7% | 85.3% | 18.1% | – | – | – | – | – | – | –
3 | C=C[C@]1(C)C[C@@H](OC(=O)c2ccccc2)[C@H]2[C@](O)(C1=O)[C@H](OC(C)=O)C[C@H]1C(C)(C)[C@H](OC(C)=O)[C@H](O)[C@H](OC(=O)c3ccccc3)[C@@]12C | – | – | – | – | – | – | – | – | – | 20.5 µM | – | – | – | – | – | –
4 | C=C[C@]1(C)C=C2CC[C@H]3C(C)(C)C[C@H](O)[C@H](O)[C@]3(C)[C@H]2[C@H](O)C1 | 60.9% | 66.5% | 22.4% | 11.1% | 37.1% | > 100 µM | 65.7% | 50.9% | 17.2% | – | – | – | – | – | – | –
5 | C=C[C@]1(C)C=C2[C@H](OC(C)=O)[C@@H](O)[C@H]3C(C)(C)CCC[C@]3(C)[C@H]2CC1 | 6.17% | 3.73% | 82.1% | 9.88% | 80.3% | 32.8 µM | 100% | 107% | -0.32% | – | 32.6 µM | – | – | – | – | –
6 | C=C[C@]1(C)C=C2C[C@@H](O)[C@H]3C(C)(C)CC[C@H](O)[C@]3(C)[C@H]2CC1 | 52.2% | 67% | 26.3% | 17.7% | 35.2% | > 100 µM | 72.9% | 65.7% | 17.4% | – | – | – | – | – | – | –
7 | C=C[C@]1(C)C=C2[C@@H](OC(C)=O)[C@@H](O)[C@H]3C(C)(C)CCC[C@]3(C)[C@@]2(O)CC1 | 85.7% | 70.3% | 47.5% | 16.7% | 24.9% | > 100 µM | 89.3% | 84.7% | 21.4% | – | > 50 µM | – | – | – | – | –
8 | C=C[C@]1(C)C=C2C[C@@H](O)[C@H]3C(C)(C)CCC[C@]3(C)[C@H]2CC1 | 109% | 66.8% | 81.7% | 3.82% | 65.6% | 39.9 µM | 98.7% | 149% | 9.97% | – | – | Active | Active | Active | Non-Toxic | Active
9 | C=C[C@]1(C)C=C2[C@H](OC(C)=O)C[C@H]3C(C)(C)CCC[C@]3(C)[C@@]2(O)CC1 | 88.7% | 4.72% | 80.5% | 14.9% | 59.5% | 41.5 µM | 71.5% | 98.3% | 20.7% | – | – | – | – | – | – | –
10 | C=C[C@]1(C)C=C2C(=O)C[C@H]3C(C)(C)CCC[C@]3(C)[C@@]2(O)CC1 | 50.7% | 45.8% | 41.6% | 32.5% | 40.1% | > 100 µM | 93.3% | 83.3% | 33.3% | – | – | – | – | – | – | –
11 | C=C[C@]1(C)C=C2CC[C@H]3C(C)(C)[C@H](O)C[C@H](O)[C@]3(C)[C@H]2CC1 | 50% | 47.7% | 33.8% | 13.3% | 33.4% | > 100 µM | 104% | 85.1% | 5.57% | – | – | – | – | – | – | –
12 | C=C[C@]1(C)C=C2CC[C@H]3C(C)(C)CC[C@H](O)[C@]3(C)[C@H]2[C@H](O)C1 | 35.9% | 27.8% | 50.4% | 6.28% | 46.6% | 95.3 µM | 78.4% | 86.7% | 13.4% | – | – | – | – | – | – | –
13 | C=C[C@]1(C)C=C2C[C@@H](O)[C@H]3C(C)(C)[C@H](O)C[C@H](O)[C@]3(C)[C@H]2CC1 | 89.4% | 101% | 24.1% | 15.2% | 34.3% | > 100 µM | 104% | 113% | 9.01% | – | – | – | – | – | – | –
14 | C=C[C@]1(C)C=C2CC[C@H]3C(C)(C)C[C@H](O)[C@H](O)[C@]3(C)[C@H]2CC1 | 70.6% | 73.5% | 49.2% | 9.37% | 37.1% | 100 µM | 113% | 70.4% | 4.21% | – | – | – | – | – | – | –
15 | C=C[C@]1(C)C[C@@H](OC(=O)c2ccccc2)[C@H]2[C@](O)(C1=O)[C@H](OC(C)=O)C[C@H]1C(C)(C)[C@H](O)[C@H](OC(C)=O)[C@H](OC(=O)c3ccccc3)[C@@]12C | – | – | – | – | – | – | – | – | – | 11.5 µM | – | – | – | – | – | –
16 | C=C[C@@]1(C)C=C2CC[C@@H]3C(C)(C)C[C@@H](O)C[C@@]3(C)[C@@H]2CC1 | 114% | 4.35% | 81.8% | 7.09% | 50.8% | 48.7 µM | 97.5% | 115% | 3.43% | – | – | – | – | – | – | –
17 | C=C[C@]1(C)C=C2[C@H](O)C[C@H]3C(C)(C)CCC[C@]3(C)[C@H]2CC1 | 58.8% | 34.2% | 67.6% | 14.4% | 59.3% | 41.7 µM | 76.9% | 65.8% | 17.4% | – | – | – | – | – | – | –
18 | C=C[C@]1(C)C=C2C[C@@H](OC(C)=O)[C@H]3C(C)(C)CCC[C@]3(C)[C@@]2(O)CC1 | 68.8% | 76% | -3.85% | 9.03% | 7.9% | > 100 µM | 76.9% | 82% | 17.7% | – | – | – | – | – | – | –
19 | CNC(=N)NCCC[C@H](N)C(=O)O [TILARGININE ACETATE] | 107% | 103% | 58.2% | 27% | 46.3% | 65.5 µM | 112% | 92.6% | 22.8% | – | – | – | – | – | – | –
20 | C=C[C@@]1(C)C[C@@H](OC(=O)c2ccccc2)[C@@H]2[C@@]3(C)C=C(O)C(=O)C(C)(C)[C@@H]3C[C@@H](OC(C)=O)[C@@]2(O)C1=O | – | – | – | – | – | – | – | – | – | 14.4 µM | – | – | – | – | – | –
21 | C=C[C@]1(C)C=C2C[C@@H](O)[C@H]3C(C)(C)CCC[C@]3(C)[C@@]2(OC)CC1 | 110% | 37.6% | 74.2% | 10.8% | 46.6% | 56.2 µM | 121% | 104% | 4.09% | – | – | – | – | – | – | –
22 | C=C[C@]1(C)C=C2[C@@H](O)C[C@H]3C(C)(C)CCC[C@]3(C)[C@@]2(O)CC1 | 73.3% | 71.3% | -5.96% | 14.8% | 5.89% | > 100 µM | 114% | 98.8% | 18.4% | – | – | – | – | – | – | –
23 | C=C[C@]1(C)C=C2[C@@H](O)[C@@H](O)[C@H]3C(C)(C)CCC[C@]3(C)[C@@]2(O)CC1 | 60.2% | 22.1% | 60.4% | 16.9% | 51.4% | 48.4 µM | 140% | 81.2% | 5.03% | – | > 50 µM | – | – | – | – | –
24 | C=C[C@]1(C)C=C2C(=O)C[C@H]3C(C)(C)CC[C@H](O)[C@]3(C)[C@H]2CC1 | 86.8% | 77.8% | 35.5% | 7.8% | 25.1% | > 100 µM | 86.6% | 92.4% | 16.5% | – | – | – | – | – | – | –
